This assay deals with Amyloid-beta precursor protein (Homo sapiens, UniProt P05067). Kind of assay: Binding affinity to human amyloid beta plaque.

The Ki is the dissociation constant of the complex between target and ligand, obtained from inhibition or displacement. Low values mean a stronger hold on the target, high ones a looser hold on the target.

Chain of Amyloid-beta precursor protein (P05067 whole entry): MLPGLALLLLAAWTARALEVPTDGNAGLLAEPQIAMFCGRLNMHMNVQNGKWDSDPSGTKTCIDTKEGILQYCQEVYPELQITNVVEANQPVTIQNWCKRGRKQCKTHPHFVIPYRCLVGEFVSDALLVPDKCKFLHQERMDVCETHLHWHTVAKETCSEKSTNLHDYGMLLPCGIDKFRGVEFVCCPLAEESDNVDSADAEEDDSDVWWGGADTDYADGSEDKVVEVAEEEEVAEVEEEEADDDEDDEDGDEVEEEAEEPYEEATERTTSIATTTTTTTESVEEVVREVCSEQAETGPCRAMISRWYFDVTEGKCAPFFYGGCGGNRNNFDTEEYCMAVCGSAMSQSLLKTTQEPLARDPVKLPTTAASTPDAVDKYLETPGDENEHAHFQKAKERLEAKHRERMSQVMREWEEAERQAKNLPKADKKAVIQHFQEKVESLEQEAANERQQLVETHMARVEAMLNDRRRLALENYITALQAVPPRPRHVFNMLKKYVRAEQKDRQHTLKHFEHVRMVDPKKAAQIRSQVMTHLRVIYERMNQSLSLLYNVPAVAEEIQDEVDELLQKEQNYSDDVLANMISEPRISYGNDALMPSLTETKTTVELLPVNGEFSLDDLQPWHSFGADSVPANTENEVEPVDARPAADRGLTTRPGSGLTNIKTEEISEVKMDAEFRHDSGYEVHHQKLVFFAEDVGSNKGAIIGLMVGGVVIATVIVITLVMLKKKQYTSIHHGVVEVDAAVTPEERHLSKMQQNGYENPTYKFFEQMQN

Consider `CNc1ccc(-c2nc3ccc(O)cc3s2)cc1[18F]` [FLUTEMETAMOL F 18], for which the Ki was 700 pM.

These data come from ChEMBL document CHEMBL2062519, “The β-Amyloid Hypothesis in Alzheimer's Disease: Seeing Is Believing” (ACS Med Chem Lett, 2012).
